Assay results as given in paper PMC7281150, “Inspired by Sea Urchins: Warburg Effect Mediated Selectivity of Novel Synthetic Non-Glycoside 1,4-Naphthoquinone-6S-Glucose Conjugates in Prostate Cancer” (Marine Drugs, 2020).
≈ marks a conversion by molar mass, not a printed value. Like-named read-outs stand apart in the source and are kept apart here.

What was measured:
PC-3 cells [1] = assay type: cell-based, human; details: PC-3, zVAD 100 µM, 48 h
[2] = test system: five prostate cancer (LNCaP, 22Rv1, VCaP, PC-3, and DU145) vs. five non-cancer (PNT2, RWPE-1, HEK 293T, MRC-9, and HUVEC) cell lines; assay: Mean MTT cytotoxicity in five prostate cancer vs. five non-cancer cell lines; assay type: cell-based, human; details: 48 h
Description: (§1) Cell viability was determined by MTT assay. Cells were pre-incubated overnight in 96-well plates (6 × 10^3 cells/well in 100 μL/well). Then, the medium was replaced with fresh medium containing the determined compounds (100 μL/well), and cells were incubated for the indicated time. Next, 10 μL/well of (3-(4,5-dimethylthiazol-2-yl)-2,5-diphenyltetrazolium bromide) reagent were added. After 2–4 h of incubation, the media was aspirated and the plates were dried. Fifty microliters per well of DMSO were added to each well and the cell viability was measured using Infinite F200PRO reader (TECAN, Männedorf, Switzerland). Results were calculated by The GraphPad Prism software v. 7.05 (GraphPad Prism software Inc., La Jolla, CA, USA) and are represented as IC50 of the compounds against control cells treated with the solvent alone.

PC-3 cells [3] = assay: Glucose uptake assay (2-NBDG), plate reader-based measurement; assay type: cell-based, human; details: PC-3, 24 h
Description: (§2) The effects of the synthesized substance on glucose uptake were evaluated using the Glucose Uptake Cell-Based Assay Kit (Cayman chemicals, Ann Arbor, MI, USA) and two different methods. (a) Plate reader-based measurement: PC-3 cells (12 × 10^3 cells/well) were seeded in two 96-well plates, incubated overnight, and treated with the investigated drugs in 100 µL/well of glucose-free 0.1% FBS/RPMI media for 24 h. Then, the 10 µL/well of either 2-NBDG solution (2-deoxy-2-[(7-nitro-2,1,3-benzoxadiazol-4-yl)amino]-D-glucose, 5 mg/mL, for glucose uptake measurements) or vehicle solution (for cell viability measurements) in glucose-free 0.1% FBS/RPMI media were added to each well. […] Then, for glucose uptake measurements, the 100 µL/well of PBS were added and the fluorescence was measured using Infinite F200PRO reader (TECAN, Männedorf, Switzerland); or, for the cell viability measurements, 100 µL/well of media containing MTS reagent were added to the cells and viability was measured as described before. Glucose uptake rate was normalized to the cell viability measured by MTS assay in order to measure the uptake rate exclusively in the viable cells. (b) FACS-based readout: The experiment was performed as described before. […] The plates were then incubated with 2-NBDG solution, the cells were harvested by trypsination, washed, stained with PI, and analyzed using a flow cytometry.

PC-3 cells [4] = assay: Glucose uptake assay (2-NBDG), FACS-based readout; assay type: cell-based, human; details: PC-3, 24 h
Description: as §2

22Rv1 cells [5] = assay: Analysis of mitochondrial membrane potential (JC-1, FACS); assay type: cell-based, human
Description: The drop down of mitochondrial membrane potential (ΔΨm) was measured using staining with ΔΨm-sensitive JC-1 dye (5,5′,6,6′-Tetrachloro-1,1′,3,3′-tetraethyl-imidacarbocyanine iodide) and flow cytometry technique. Cells (10^5 cells/well) were seeded in 12-well plates and incubated overnight. […] The cells were trypsinized, pelleted, resuspended in 100 µL of 2 µM JC-1/PBS, incubated for 1 h (37 °C, 5% CO2, in the dark), and analyzed by flow cytometry technique.

22Rv1 cells [6] = assay: Analysis of intracellular ROS level (CM-H2DCFDA, FACS); assay type: cell-based, human; details: 2 h
Description: Intracellular ROS levels were accessed using the ROS-sensitive CM-H2DCFDA reagent (Cat. No. C6827, Molecular probes, Invitrogen, Eugene, OR, USA). The experiment was performed as previously described with slight modifications. In brief, 22Rv1 cells (10^5 cells/well) were seeded in 12-well plates and incubated overnight. The media was changed with freshly made pre-warmed staining solution (4 µM CM-H2DCFDA/PBS, 0.5 mL/well) and incubated in the dark (37 °C, 5% CO2) for 30 min. Then, the staining solution was exchanged with 1 mL/well of pre-warmed PBS containing the investigated compounds or H2O2 (positive control) at the indicated concentrations and the cells were incubated for 2 h. Next, the cells were trypsinized, resuspended in pre-warmed PBS (200 µL/sample) and immediately analyzed by FACS according to the manufacture′s protocol.

22Rv1 cells [7] = assay: MTT cytotoxicity in 22Rv1 cells with or without N-acetyl-L-cysteine; assay type: cell-based, human; details: without NaC, FBS- and glucose-free media, 48 h, read-out: IC50 (viability of 22Rv1 cells)
Description: as §1

22Rv1 cells [8] = assay: Analysis of cell cycle progression and DNA fragmentation (PI staining, FACS); assay type: cell-based, human; details: 22Rv1, 48 h
Description: Cells (2 × 10^5 cells/well) were pre-incubated overnight in 6-well plates. Then, cells were treated with the substances in 2 mL of fresh culture media/well for 48 h. Cells were harvested by trypsination, fixed in 70% EtOH, stained with PI, and analyzed by FACS Calibur (BD Bioscience, San Jose, CA, USA). The results were quantified using BD Bioscience Cell Quest Pro v.5.2.1. software (BD Bioscience, San Jose, CA, USA). The sub-G1 population was considered to reflect apoptotic cells (containing fragmented DNA).

22Rv1 cells [9] = assay: Western blotting of protein expression; assay type: cell-based, human; details: for cleavage of caspase-3 (Western blotting) / p21 expression (Western blotting) / PARP cleavage (Western blotting): 22Rv1, 48 h; for PARP cleavage (Western blotting): concentrations close to IC50s
Description: (§3) Cells (10^6 cells/well) were seeded in Petri dishes (ø 6 cm) and incubated overnight. The cells were treated with the investigational drugs in fresh culture media (5 mL/dish) for 48 h. Then, cells were harvested by scratching and lysed in the lysis buffer (1% NP-40, 50 mM Tris-HCl (pH 7.6), 0.88% NaCl, 0.25% sodium cholate, 1 mM Na3VO4, 0.1 mM PMSF, protease inhibitors cocktail (cOmplete Mini EDTA-free EASYpacks, Roche, Mannheim, Germany)). Proteins were extracted and diluted with lysis buffer and loading dye, heated 5 min at 99 °C and subjected to electrophoresis in gradient Mini-PROTEAN® TGX Stain-Free^TM gels (Bio-Rad, Hercules, CA, USA). Proteins were transferred from gel to 0.2 µm pore PVDF membrane using Trans-Blot® Turbo^TM RTA Mini PVDF Trans kit (Bio-Rad) and Trans-Blot® Turbo^TM Blotting System (Bio-Rad) according to the manufactures protocol. The membrane was blocked (5% BSA in 0.05% Tween-20/TBS), treated with primary and secondary antibodies, and the signals were detected using the ECL chemiluminescence system (Thermo Scientific, Rockford, IL, USA). All procedures were performed according to the manufacturer′s protocols.

[10] = test system: human drug-resistant prostate cancer PC-3 cells; assay: MTT cytotoxicity in PC-3 cells; assay type: cell-based; details: for IC50: 24 h, read-out: IC50 (viability of PC-3 cells)
Description: as §1

22Rv1 cells [11] = assay: Cell fractionation (mitochondrial, cytoplasmic, total) with Western blotting; assay type: cell-based, human; details: 22Rv1, 48 h
Description: as §3
The separation of cellular nuclear, mitochondrial, and cytosolic fractions was performed using the Cell Fractionation Kit ab109719 (abcam, Cambridge, MA, USA). […]

[12] = test system: human cancer HeLa S3 cells; parameters: method as in PMID 3437287; details: cited from earlier work
[13] = glucose-containing media (+Glc, 2 g/L)

Molecule | effect of co-treatment with pan-caspase inhibitor zVAD on cytotoxic effects (PC-3 cells [1]) | glucose uptake (2-NBDG, plate reader), normalized to cell viability (PC-3 cells [3]) | glucose uptake (2-NBDG, single cells by flow cytometry), normalized to cell viability (PC-3 cells [4]) | IC50 (22Rv1 cells [7]) [µM] | DNA fragmentation (sub-G1 peak) (22Rv1 cells [8]) | cell cycle progression (22Rv1 cells [8]) | cleavage of caspase-3 (Western blotting) (22Rv1 cells [9]) | p21 expression (Western blotting) (22Rv1 cells [9]) | PARP cleavage (Western blotting) (22Rv1 cells [9]) | IC50 [10, 13] [µM] | IC50 ([10]; glucose-free media (−Glc)) [µM] | also measured
6-(6-Deoxy-D-glucopyranos-6-ylthio)-5,8-dihydroxy-7-methyl-2,3-dimethoxy-1,4-naphthoquinone [SAB-14] | antagonized the cytotoxic effects | inhibition of glucose uptake | inhibition of glucose uptake | 4.6 ± 2.9 | DNA fragmentation | G2/M-cell cycle arrest | cleavage of caspase-3 was observed | upregulation of p21 | PARP cleavage | 22.6 ± 7.3 | 4.7 ± 1.4 | selectivity to prostate cancer cells vs. non-cancer lines (mean cytotoxicity) [2]: higher selectivity to the cancer cells; cells containing depolarized mitochondria (JC-1) (22Rv1 cells [5]; 22Rv1, 10 μM, 2 h): 20.4±3.6%; cells containing depolarized mitochondria (JC-1) (22Rv1 cells [5]; 22Rv1, 10 μM, 48 h): 47±1.0%; ROS level (CM-H2DCFDA, FACS) (22Rv1 cells [6]; 22Rv1, 5 μM): 9.9±0.4%; selectivity index (SI), IC50 (PNT2)/IC50 (PC-3) ([10]; MTT, 48 h): > 2
6-(1,2,3,4-Tetra-O-acetyl-6-deoxy-β-D-glucopyranos-6-ylthio)-5,8-dihydroxy-7-methyl-2,3-dimethoxy-1,4-naphthoquinone [SAB-13] | antagonized the cytotoxic effects | inhibition of glucose uptake | inhibition of glucose uptake | 2.3 ± 0.3 | DNA fragmentation | G2/M-cell cycle arrest | cleavage of caspase-3 was observed | upregulation of p21 | PARP cleavage | 10.8 ± 1.7 | 5 ± 1.1 | cells containing depolarized mitochondria (JC-1) (22Rv1 cells [5]; 22Rv1, 2 μM, 2 h): 47.3±6.1%; cells containing depolarized mitochondria (JC-1) (22Rv1 cells [5]; 22Rv1, 2 μM, 48 h): 69.5±8.1%; ROS level (CM-H2DCFDA, FACS) (22Rv1 cells [6]; 22Rv1, 0.5 μM): 31.2±3.2%; redistribution of mitochondrial proteins (cytochrome C, AIF) to cytoplasm (22Rv1 cells [11]): release of cytotoxic mitochondrial proteins to cellular cytoplasm; caspase-9 activation (cleaved caspase-9, Western blotting) (22Rv1 cells [9]; 22Rv1, 2 h): activated caspase-9 shortly after treatment; higher cytotoxicity compared with SAB-14 ([10]; screening, MTT, 48 h): ~ 10 fold
COC1=C(OC)C(=O)c2c(O)c(OC)cc(O)c2C1=O [tricrozarin B] |  |  |  |  |  |  |  |  |  |  |  | IC50 (colony formation) [12]: 7 ng/mL (≈ 0.025 µM)
